# Patent US4439426A, “Semisynthetic macrolidic antibiotics, intermediate compounds for their preparation and related pharmaceutical compositions containing them” (priority 1981, dated 1984)
# Like-named read-outs stand apart in the source and are kept apart here.
# How the values were obtained:
# [1] = test system: Corynebacterium diphteriae LRP 24; assay: Bacteriostatic power in liquid medium (MIC); format: cell-based; details: Corynebacterium, LRP24, read-out: Minimum inhibiting concentration
# Method in brief: (§1)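 Each strain, whether aerobic or anaerobic and Gram positive or negative, is tested for growth inhibition; the lowest inhibiting concentration is reported.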
# [2] = test system: Staphylococcus aureus ATCC 6538 P LRP 39; assay: Bacteriostatic power in liquid medium (MIC); format: cell-based; details: Staphylococcus aureus, ATCC6538, read-out: Minimum inhibiting concentration
# Method in brief: as §1
# [3] = test system: Streptococcus pneumoniae ATCC 6303 LRP 35; assay: Bacteriostatic power in liquid medium (MIC); format: cell-based; details: Streptococcus pneumoniae, ATCC6303, read-out: Minimum inhibiting concentration
# Method in brief: as §1
# [4] = test system: Streptococcus pyogenes ATCC 8668 LRP 34; assay: Bacteriostatic power in liquid medium (MIC); format: cell-based; details: Streptococcus pyogenes, ATCC8668, read-out: Minimum inhibiting concentration
# Method in brief: as §1
# [5] = test system: Streptococcus faecalis subs. zymogenes ATCC 12958 LRP 61; assay: Bacteriostatic power in liquid medium (MIC); format: cell-based; details: Enterococcus faecalis, ATCC12958, read-out: Minimum inhibiting concentration
# Method in brief: as §1
# [6] = test system: Streptococcus pyogenes ATCC 8668 LRP 197; assay: Bacteriostatic power in solid medium (MIC); format: cell-based; details: Streptococcus pyogenes, ATCC8668, read-out: Minimum inhibiting concentration
# Method in brief: as §1
# [7] = test system: Mycoplasma hominis I ATCC 14027 LRP 211; assay: Bacteriostatic power in solid medium (MIC); format: cell-based; details: Metamycoplasma hominis, ATCC14027, read-out: Minimum inhibiting concentration
# Method in brief: as §1
# [8] = test system: Klelsiella pneumoniae LRP 54; assay: Bacteriostatic power in solid medium (MIC); format: cell-based; details: read-out: Minimum inhibiting concentration
# Method in brief: as §1
# [9] = test system: Staphylococcus aureus ATCC 14154 LRP 78; assay: Bacteriostatic power in solid medium (MIC); format: cell-based; details: Staphylococcus aureus, ATCC14154, read-out: Minimum inhibiting concentration
# Method in brief: as §1
# [10] = test system: Fusobacteriumnecrophroum ATCC 27852 LRP 210; assay: Bacteriostatic power in solid medium (MIC); format: cell-based; details: read-out: Minimum inhibiting concentration
# Method in brief: as §1
# [11] = test system: Staphylococcus aureus ATCC 6538P LRP 39; assay: Bacteriostatic power in solid medium (MIC); format: cell-based; details: Staphylococcus aureus, ATCC6538P, read-out: Minimum inhibiting concentration
# Method in brief: as §1
# [12] = test system: Corynebacterium diphteriae LRP 24; assay: Bacteriostatic power in solid medium (MIC); format: cell-based; details: Corynebacterium, LRP24, read-out: Minimum inhibiting concentration
# Method in brief: as §1
# [13] = test system: Streptococcus pneumoniae ATCC 6303 LRP 52; assay: Bacteriostatic power in solid medium (MIC); format: cell-based; details: Streptococcus pneumoniae, ATCC6303, read-out: Minimum inhibiting concentration
# Method in brief: as §1
# Escherichia coli LRP 50 = assay: Bacteriostatic power in solid medium (MIC); format: cell-based; details: Escherichia coli, LRP50, read-out: Minimum inhibiting concentration
# Method in brief: as §1
# [14] = test system: Staphylococcus aureus ATCC 6538P LRP 14; assay: Bacteriostatic power in solid medium (MIC); format: cell-based; details: Staphylococcus aureus, ATCC6538P, read-out: Minimum inhibiting concentration
# Method in brief: as §1
# [15] = test system: Streptococcus faecalis subsp. zymogenes ATCC 12958 LRP 61; assay: Bacteriostatic power in solid medium (MIC); format: cell-based; details: Enterococcus faecalis, ATCC12958, read-out: Minimum inhibiting concentration
# Method in brief: as §1
# [16] = test system: Proteus vulgaris ATCC 6380 LRP 13; assay: Bacteriostatic power in solid medium (MIC); format: cell-based; details: Proteus vulgaris, ATCC6380, read-out: Minimum inhibiting concentration
# Method in brief: as §1
# [17] = test system: Pseudomonas aeruginosa LRP 9; assay: Bacteriostatic power in solid medium (MIC); format: cell-based; details: Pseudomonas aeruginosa, LRP9, read-out: Minimum inhibiting concentration
# Method in brief: as §1
# [18] = test system: Streptococcus faecalis LRP 7; assay: Bacteriostatic power in solid medium (MIC); format: cell-based; details: Enterococcus faecalis, LRP7, read-out: Minimum inhibiting concentration
# Method in brief: as §1
# Shigella sonnei LRP 5 = assay: Bacteriostatic power in solid medium (MIC); format: cell-based; details: LRP5, read-out: Minimum inhibiting concentration
# Method in brief: as §1
# [19] = test system: Bacteroides fragilis ATCC 23745 LRP 205; assay: Bacteriostatic power in solid medium (MIC); format: cell-based; details: Bacteroides fragilis, ATCC23745, read-out: Minimum inhibiting concentration
# Method in brief: as §1
# [20] = test system: Neisseria gonorrhoeae ATCC 19424 LRP 214; assay: Bacteriostatic power in solid medium (MIC); format: cell-based; details: Neisseria gonorrhoeae, ATCC19424, read-out: Minimum inhibiting concentration
# Method in brief: as §1
# [21] = test system: Streptococcus pneumoniae ATCC 6303 LRP 53; assay: Bacteriostatic power in solid medium (MIC); format: cell-based; details: Streptococcus pneumoniae, ATCC6303, read-out: Minimum inhibiting concentration
# Method in brief: as §1
# [22] = test system: Haemophilus influenzae ATCC 19418 LRP 213; assay: Bacteriostatic power in solid medium (MIC); format: cell-based; details: Haemophilus influenzae, ATCC19418, read-out: Minimum inhibiting concentration
# Method in brief: as §1
# [23] = test system: Streptococcus pneumoniae ATCC 6303 LRP 35; assay: Bacteriostatic power in solid medium (MIC); format: cell-based; details: Streptococcus pneumoniae, ATCC6303, read-out: Minimum inhibiting concentration
# Method in brief: as §1
# [24] = test system: Micrococcus luteus ATCC 15957 LRP 193; assay: Bacteriostatic power in solid medium (MIC); format: cell-based; details: Micrococcus luteus, ATCC15957, read-out: Minimum inhibiting concentration
# Method in brief: as §1
# [25] = test system: Streptococcus pyogenes ATCC 8668 LRP 34; assay: Bacteriostatic power in solid medium (MIC); format: cell-based; details: Streptococcus pyogenes, ATCC8668, read-out: Minimum inhibiting concentration
# Method in brief: as §1
# Bacillus subtilis LRP 25 = assay: Bacteriostatic power in solid medium (MIC); format: cell-based; details: Bacillus subtilis, LRP25, read-out: Minimum inhibiting concentration
# Method in brief: as §1
# [26] = test system: Micrococcus luteus ATCC 9341 LRP 6; assay: Bacteriostatic power in solid medium (MIC); format: cell-based; details: Micrococcus luteus, ATCC9341, read-out: Minimum inhibiting concentration
# Method in brief: as §1
# [27] = test system: Acholeplasma laidlawii ATCC 23206 LRP 204; assay: Bacteriostatic power in solid medium (MIC); format: cell-based; details: Acholeplasma laidlawii, ATCC23206, read-out: Minimum inhibiting concentration
# Method in brief: as §1
# [28] = Stability in acidic environment at 25° C. (half-life of initial microbiological activity); format: physicochemical; details: aqueous solution, read-out: t 1/2 (converted)
# Method: Stability in acidic environnment at 25° C. of the novel
# Note: t 1/2 represents the time for reducing to one half the initial powe
# of the antibiotic determined by microbiological method through diffusion
# on a plate using the test stock Microccocus luteus (Sarcina lutea) ATCC
# Salmonella typhy LRP 8 = assay: microbe, parasite or virus in culture; format: cell-based; details: LRP8, solid medium, read-out: Minimum inhibiting concentration
# Method in brief: as §1
# [29] = test system: Clostridium perfrigens ATCC 3624 LRP 206; assay: microbe, parasite or virus in culture; format: cell-based; details: ATCC3624, read-out: Minimum inhibiting concentration
# Method in brief: as §1
# [30] = test system: Corynebacterium diphteriae LRP 24; assay: Minimum bactericidal concentration (MBC); format: cell-based
# Excerpt: (§2) the bacterial power, expressed as the minimum bactericidal power (MBC) against some Gram positive aerobic stocks (table 5).
# [31] = test system: Streptococcus faecalis subs. zymogenes LRP 61; assay: Minimum bactericidal concentration (MBC); format: cell-based
# Excerpt: as §2
smiles,measurement,setting,value
"CC[C@H]1OC(=O)[C@H](C)[C@@H](O[C@H]2C[C@@](C)(OC)[C@@H](O)[C@H](C)O2)[C@H](C)[C@@H](O[C@@H]2O[C@H](C)C[C@H](N(C)C)[C@H]2O)[C@](C)(O)C[C@](C)(F)C(=O)[C@H](C)[C@@H](O)[C@]1(C)O [P-80206, (8S)-8-fluoroerythromycin A]",MIC,[1],0.012 mg/L
same,MIC,[2],0.195 mg/L
same,MIC,[3],0.049 mg/L
same,MIC,[4],0.097 mg/L
same,MIC,[5],0.39 mg/L
same,MIC,[6],0.012 mg/L
same,MIC,[7],25 mg/L
same,MIC,[8],12.5 mg/L
same,MIC,[9],25 mg/L
same,MIC,[10],1.56 mg/L
same,MIC,[11],0.097 mg/L
same,MIC,[12],0.012 mg/L
same,MIC,[13],0.024 mg/L
same,MIC,Escherichia coli LRP 50,12.5 mg/L
same,MIC,[14],0.097 mg/L
same,MIC,[15],0.195 mg/L
same,MIC,[16],25 mg/L
same,MIC,[17],25 mg/L
same,MIC,[18],0.195 mg/L
same,MIC,Shigella sonnei LRP 5,25 mg/L
same,MIC,[19],0.195 mg/L
same,MIC,[20],0.049 mg/L
same,MIC,[21],0.024 mg/L
same,MIC,[22],3.12 mg/L
same,MIC,[23],0.024 mg/L
same,MIC,[24],25 mg/L
same,MIC,[25],0.012 mg/L
same,MIC,Bacillus subtilis LRP 25,0.049 mg/L
same,MIC,[26],0.006 mg/L
same,MIC,[27],0.097 mg/L
same,half-life,"[28]; pH 2.0, 25° C.",9 h
same,half-life,"[28]; pH 3.0, 25° C.",82.5 h
same,MIC,Salmonella typhy LRP 8,12.5 mg/L
same,MIC,[29],0.78 mg/L
same,MBC/MIC,[30],8
same,MBC,"[30]; Corynebacterium, LRP24, read-out: Minimum bactericidal concentration (MBC)",0.097 mg/L
same,MBC/MIC,[31],16
same,MBC,"[31]; Enterococcus faecalis, read-out: Minimum bactericidal concentration (MBC)",6.25 mg/L
